Where two headings read alike, the source gives them in different places.
Tests used:
vaccinia virus = assay: microbe, parasite or virus in culture; assay type: cell-based, Vaccinia virus (WR strain)
Cytotoxicity (CC50) = conditions: African green monkey, BSC-1 cells
[1] = Orthopoxvirus vaccinia, BSC-1, read-out: IC50 (antiviral)

Q: For CCc1ccc2c(Sc3ccc(Cl)c(Cl)c3)c(C(=O)O)[nH]c2c1 [Compound 23, 3-((3,4-Dichlorophenyl)thio)-6-ethyl-1H-indole-2-carboxylic acid], which IC50 (vaccinia virus; [1]) is on record?
A: 42 µM

Q: Which “IC50 (antiviral)” value (vaccinia virus) does the source give for COc1ccc(Sc2c(C(=O)O)[nH]c3cccc(C)c23)cc1 [Compound 19, 3-((4-Methoxyphenyl)thio)-4-methyl-1H-indole-2-carboxylic acid] here?
A: failed to show antiviral activities

Q: For COc1cccc2[nH]c(C(=O)O)c(Sc3ccc(Cl)cc3)c12 [Compound 1i, 3-((4-Chlorophenyl)thio)-4-methoxy-1H-indole-2-carboxylic acid], which “IC50 (antiviral)” value (vaccinia virus) is on record?
A: loss of activity

Q: Which “IC50 (antiviral)” value (vaccinia virus) does the source give for Cc1ccc2c(Sc3ccc(C(F)(F)F)cc3[N+](=O)[O-])c(C(=O)O)[nH]c2c1 [Compound 31, 6-Methyl-3-((2-nitro-4-(trifluoromethyl)phenyl)thio)-1H-indole-2-carboxylic acid] here?
A: loss of activity

Q: Which IC50 (vaccinia virus; [1]) does the source give for CCc1ccc2c(Sc3cc(Cl)cc(Cl)c3)c(C(=O)O)[nH]c2c1 [Compound 25, 3-((3,5-Dichlorophenyl)thio)-6-ethyl-1H-indole-2-carboxylic acid] here?
A: 9 µM

Q: What about the CC50 (Cytotoxicity (CC50)) of the same molecule?
A: 63 µM

Q: Which IC50 (vaccinia virus; [1]) does the source give for CCc1ccc2c(Sc3ccc(Cl)cc3)c(C(=O)O)[nH]c2c1 [Compound 1h, 3-((4-Chlorophenyl)thio)-6-ethyl-1H-indole-2-carboxylic acid] here?
A: 36 µM

Q: Which IC50 (vaccinia virus; [1]) does the source give for COC(=O)c1[nH]c2cccc(C)c2c1Sc1ccc(Cl)cc1 [Compound 9, Methyl 3-((4-chlorophenyl)thio)-4-methyl-1H-indole-2-carboxylate] here?
A: 21 µM

Q: Which “IC50 (antiviral)” value (vaccinia virus) does the source give for Cc1cccc2[nH]c(C(=O)O)c(Sc3ccc([N+](=O)[O-])cc3)c12 [Compound 19c, 4-Methyl-3-((4-nitrophenyl)thio)-1H-indole-2-carboxylic acid] here?
A: loss of activity

Q: What does the source list for Cc1cccc2[nH]c(C(=O)O)c(Sc3ccc(Cl)cc3)c12 [Compound 1a, 3-((4-Chlorophenyl)thio)-4-methyl-1H-indole-2-carboxylic acid]?
A: IC50 (vaccinia virus; [1]): 46 to 86 µM; IC50 (vaccinia virus; read-out: IC50 (antiviral)): 86 µM

Q: For COC(=O)c1[nH]c2c(C)cccc2c1Sc1ccc(Cl)cc1 [Compound 8, Methyl 3-((4-chlorophenyl)thio)-7-methyl-1H-indole-2-carboxylate], which IC50 (vaccinia virus; [1]) is on record?
A: 23 µM

Q: What about the CC50 (Cytotoxicity (CC50)) of the same molecule?
A: 32 µM

Q: With COC(=O)c1ccc(Sc2c(C(=O)O)[nH]c3cccc(C)c23)cc1 [Compound 19b, 3-((4-(Methoxycarbonyl)phenyl)thio)-4-methyl-1H-indole-2-carboxylic acid] as the molecule, how does the “IC50 (antiviral)” value (vaccinia virus) read?
A: failed to show antiviral activities

Q: Which “SI (selectivity index = CC50/IC50)” value (vaccinia virus) does the source give for Cc1ccc2c(Sc3cc(Cl)cc(Cl)c3)c(C(=O)O)[nH]c2c1 [Compound 24, 3-((3,5-Dichlorophenyl)thio)-6-methyl-1H-indole-2-carboxylic acid] here?
A: 11

Q: What about the “fold activity improvement over the parent 1” value (shortened to “fold activity improvement”) (vaccinia virus) of the same molecule?
A: 2-11 fold

Q: What about the IC50 (vaccinia virus; Orthopoxvirus vaccinia) of the same molecule?
A: 7 µM

Q: What about the IC50 (vaccinia virus; [1]) of the same molecule?
A: 7 to 37 µM

Q: And the CC50 (Cytotoxicity (CC50))?
A: 75 µM

Q: For Cc1ccc2c(Sc3ccc(Cl)cc3)c(C(=O)O)[nH]c2c1 [Compound 1, 3-((4-Chlorophenyl)thio)-6-methyl-1H-indole-2-carboxylic acid], which IC50 (vaccinia virus; Orthopoxvirus vaccinia) is on record?
A: 82 µM

Q: And the IC50 (vaccinia virus; [1])?
A: 82 µM

Q: What about the CC50 (Cytotoxicity (CC50)) of the same molecule?
A: 192 µM

Q: With COc1ccc(Sc2c(C(=O)O)[nH]c3cc(C)ccc23)cc1 [Compound 18e, 3-((4-Methoxyphenyl)thio)-6-methyl-1H-indole-2-carboxylic acid] as the molecule, how does the “IC50 (antiviral)” value (vaccinia virus) read?
A: failed to show antiviral activities

Q: Which “fold improvement in activity over the corresponding R1 methyl analogs 2 and 4” value (vaccinia virus) does the source give for CCn1c(C(=O)O)c(Sc2ccc(Cl)cc2)c2cc(C)ccc21 [Compound 3, 3-((4-Chlorophenyl)thio)-1-ethyl-5-methyl-1H-indole-2-carboxylic acid] here?
A: 1.5 fold

Q: What about the IC50 (vaccinia virus; [1]) of the same molecule?
A: 86 µM

Q: For COC(=O)c1c(Sc2ccc(Cl)cc2)c2cc(C)ccc2n1C [Compound 4, Methyl 3-((4-chlorophenyl)thio)-1,5-dimethyl-1H-indole-2-carboxylate], which IC50 (vaccinia virus; [1]) is on record?
A: 163 µM

Q: For O=C(O)c1[nH]c2cc(Br)ccc2c1Sc1ccc(Cl)cc1 [Compound 1f, 6-Bromo-3-((4-chlorophenyl)thio)-1H-indole-2-carboxylic acid], which IC50 (vaccinia virus; [1]) is on record?
A: 40 to 51 µM

Q: What about the IC50 (vaccinia virus; read-out: IC50 (antiviral)) of the same molecule?
A: 51 µM

Q: And the CC50 (Cytotoxicity (CC50))?
A: 90 µM

Q: With Cc1ccc2c(Sc3ccccc3)c(C(=O)O)[nH]c2c1 [Compound 18, 6-Methyl-3-(phenylthio)-1H-indole-2-carboxylic acid] as the molecule, how does the “IC50 (antiviral)” value (vaccinia virus) read?
A: abolished its antiviral activity

Q: With O=C(O)c1[nH]c2cc(Cl)ccc2c1Sc1ccc(Cl)cc1 [Compound 1e, 6-Chloro-3-((4-chlorophenyl)thio)-1H-indole-2-carboxylic acid] as the molecule, how does the IC50 (vaccinia virus; [1]) read?
A: 40 to 51 µM

Q: And the IC50 (vaccinia virus; read-out: IC50 (antiviral))?
A: 47 µM

Q: And the CC50 (Cytotoxicity (CC50))?
A: 138 µM

Q: Which “fold activity improvement” value (vaccinia virus) does the source give for Cc1cccc2c(Sc3ccc(Cl)c(Cl)c3)c(C(=O)O)[nH]c12 [Compound 22, 3-((3,4-Dichlorophenyl)thio)-7-methyl-1H-indole-2-carboxylic acid] here?
A: 2-11 fold

Q: And the CC50 (Cytotoxicity (CC50))?
A: 150 µM

Q: Which “fold activity improvement” value (vaccinia virus) does the source give for Cc1ccc2c(Sc3ccc(Cl)c(Cl)c3)c(C(=O)O)[nH]c2c1 [Compound 21, 3-((3,4-Dichlorophenyl)thio)-6-methyl-1H-indole-2-carboxylic acid] here?
A: 2-11 fold

Q: What about the CC50 (Cytotoxicity (CC50)) of the same molecule?
A: 76 µM

Q: With Cc1ccc2c(Sc3ccc(C(=O)O)cc3)c(C(=O)O)[nH]c2c1 [Compound 18f, 3-((4-Carboxyphenyl)thio)-6-methyl-1H-indole-2-carboxylic acid] as the molecule, how does the “IC50 (antiviral)” value (vaccinia virus) read?
A: loss of activity

Q: With Cc1ccc(Sc2c(C(=O)O)[nH]c3cc(C)ccc23)cc1 [Compound 18d, 6-Methyl-3-(p-tolylthio)-1H-indole-2-carboxylic acid] as the molecule, how does the “IC50 (antiviral)” value (vaccinia virus) read?
A: failed to show antiviral activities

Q: With CNC(=O)c1[nH]c2cc(C)ccc2c1Sc1cc(Cl)cc(Cl)c1 [Compound 28, 3-((3,5-Dichlorophenyl)thio)-N,6-dimethyl-1H-indole-2-carboxamide] as the molecule, how does the “IC50 (antiviral)” value (vaccinia virus) read?
A: loss of activity

Q: With Cc1ccc2c(Sc3cccc(Cl)c3)c(C(=O)O)[nH]c2c1 [Compound 18a, 3-((3-Chlorophenyl)thio)-6-methyl-1H-indole-2-carboxylic acid] as the molecule, how does the IC50 (vaccinia virus; [1]) read?
A: 51 µM

Q: For Cc1ccc2c(Sc3cc(Cl)c(Cl)cc3Cl)c(C(=O)O)[nH]c2c1 [Compound 30, 6-Methyl-3-((2,4,5-trichlorophenyl)thio)-1H-indole-2-carboxylic acid], which IC50 (vaccinia virus; [1]) is on record?
A: 25 µM

Q: What about the CC50 (Cytotoxicity (CC50)) of the same molecule?
A: 78 µM

Q: For Cc1cccc2[nH]c(C(=O)O)c(Sc3cc(Cl)c(Cl)cc3Cl)c12 [Compound 30b, 4-Methyl-3-((2,4,5-trichlorophenyl)thio)-1H-indole-2-carboxylic acid], which IC50 (vaccinia virus; [1]) is on record?
A: 18 µM

Q: What about the CC50 (Cytotoxicity (CC50)) of the same molecule?
A: 65 µM

Q: Which “IC50 (antiviral)” value (vaccinia virus) does the source give for O=C(O)c1[nH]c2ccccc2c1Sc1ccc(Cl)cc1 [Compound 1d, 3-(4-Chlorophenylthio)-1H-indole-2-carboxylic acid] here?
A: loss of activity

Q: For “3-((3,5-Dichlorophenyl)thio)-6-methyl-1H-indole-2-carboxylate [Compound 27]”, which “IC50 (antiviral)” value (vaccinia virus) is on record?
A: loss of activity

Q: Which IC50 (vaccinia virus; [1]) does the source give for Cc1cccc2c(Sc3ccc(Cl)cc3)c(C(=O)O)[nH]c12 [Compound 1c, 3-((4-Chlorophenyl)thio)-7-methyl-1H-indole-2-carboxylic acid] here?
A: 46 to 86 µM

Q: And the IC50 (vaccinia virus; read-out: IC50 (antiviral))?
A: 74 µM

Q: For O=C(O)c1[nH]c2cc(F)ccc2c1Sc1ccc(Cl)cc1 [Compound 1g, 6-Fluoro-3-((4-chlorophenyl)thio)-1H-indole-2-carboxylic acid], which IC50 (vaccinia virus; [1]) is on record?
A: 40 to 51 µM

Q: And the IC50 (vaccinia virus; read-out: IC50 (antiviral))?
A: 40 µM

Q: Which results are given for Cc1ccc2c(Sc3ccc(Cl)cc3Cl)c(C(=O)O)[nH]c2c1 [Compound 20, 3-((2,4-Dichlorophenyl)thio)-6-methyl-1H-indole-2-carboxylic acid]?
A: fold activity improvement over the parent 1 (vaccinia virus): 2-11 fold; CC50 (Cytotoxicity (CC50)): 129 µM

Q: For Cc1ccc2c(Sc3ccc(Br)cc3)c(C(=O)O)[nH]c2c1 [Compound 18c, 3-((4-Bromophenyl)thio)-6-methyl-1H-indole-2-carboxylic acid], which “IC50 (antiviral)” value (vaccinia virus) is on record?
A: loss of activity

Q: And the CC50 (Cytotoxicity (CC50))?
A: 133 µM

Q: What does the source list for O=C(O)c1[nH]c2ccccc2c1Sc1cc(Cl)cc(Cl)c1 [Compound 26, 3-((3,5-Dichlorophenyl)thio)-1H-indole-2-carboxylic acid]?
A: fold decrease in activity compared to 24 (vaccinia virus): ~6 fold; IC50 (vaccinia virus; [1]): 43 µM; CC50 (Cytotoxicity (CC50)): 133 µM

Q: Which results are given for Cc1ccc2[nH]c(C(=O)O)c(Sc3ccc(Cl)cc3)c2c1 [Compound 1b, 3-((4-Chlorophenyl)thio)-5-methyl-1H-indole-2-carboxylic acid]?
A: IC50 (vaccinia virus; [1]): 46 to 86 µM; IC50 (vaccinia virus; read-out: IC50 (antiviral)): 46 µM; CC50 (Cytotoxicity (CC50)): 136 µM

Q: For CCn1c(C(=O)OC)c(Sc2ccc(Cl)cc2)c2cc(C)ccc21 [Compound 5, Methyl 3-((4-chlorophenyl)thio)-1-ethyl-5-methyl-1H-indole-2-carboxylate], which “fold improvement in activity of 5 over 3” value (vaccinia virus) is on record?
A: 2 fold

Q: What about the “fold improvement in activity over the corresponding R1 methyl analogs 2 and 4” value (vaccinia virus) of the same molecule?
A: 4 fold

Q: And the IC50 (vaccinia virus; [1])?
A: 39 µM

Q: Which IC50 (vaccinia virus; [1]) does the source give for Cc1ccc(C)c2c(Sc3ccc(Cl)cc3)c(C(=O)O)[nH]c12 [Compound 1j, 3-((4-chlorophenyl)thio)-4,7-dimethyl-1H-indole-2-carboxylic acid] here?
A: 50 µM

Q: And the CC50 (Cytotoxicity (CC50))?
A: 109 µM

Q: With Cc1ccc2c(Sc3ccc(C(F)(F)F)cc3)c(C(=O)O)[nH]c2c1 [Compound 18g, 6-Methyl-3-((4-(trifluoromethyl)phenyl)thio)-1H-indole-2-carboxylic acid] as the molecule, how does the IC50 (vaccinia virus; [1]) read?
A: 33 µM

Q: What about the CC50 (Cytotoxicity (CC50)) of the same molecule?
A: 137 µM

Q: What does the source list for COC(=O)c1[nH]c2cc(C)ccc2c1Sc1ccc(Cl)cc1 [Compound 6, Methyl 3-((4-chlorophenyl)thio)-6-methyl-1H-indole-2-carboxylate]?
A: IC50 (vaccinia virus; [1]): 19 µM; CC50 (Cytotoxicity (CC50)): 61 µM

Q: Which IC50 (vaccinia virus; [1]) does the source give for Cc1ccc2c(Sc3cccc(F)c3)c(C(=O)O)[nH]c2c1 [Compound 18b, 3-((3-Fluorophenyl)thio)-6-methyl-1H-indole-2-carboxylic acid] here?
A: 56 µM

Q: And the IC50 (vaccinia virus; read-out: IC50 (antiviral))?
A: 69 µM

Q: With Cc1ccc(Sc2c(C(=O)O)[nH]c3cccc(C)c23)cc1 [Compound 19a, 4-Methyl-3-(p-tolylthio)-1H-indole-2-carboxylic acid] as the molecule, how does the “IC50 (antiviral)” value (vaccinia virus) read?
A: failed to show antiviral activities

Q: With Cc1ccc2c(c1)c(Sc1ccc(Cl)cc1)c(C(=O)O)n2C [Compound 2, 3-((4-Chlorophenyl)thio)-1,5-dimethyl-1H-indole-2-carboxylic acid] as the molecule, how does the IC50 (vaccinia virus; [1]) read?
A: 135 µM
